Data on 5 compounds can be found in ChEMBL document CHEMBL3351906, “Bioactive triterpenoid saponins and phenolic compounds against glioma cells” (Bioorg Med Chem Lett, 2014).

Structures are written as SMILES. The source made the active and inactive calls. The calls are words filed in the database; no cut-off is given here. Bounds are passed on as bounds.

One may read the IC50 as the concentration that inhibits the measured activity by half.

For experiment [1], the system named is C6. The experiment is described as follows: Induction of necrosis in rat C6 cells at 10 uM after 72 hrs by propidium iodide staining based fluorescence microscopy. The experiment is classed as functional, cell-based.
For experiment [2], the system named is U-251. The experiment is described as follows: Inhibition of cell proliferation of human U251 cells assessed as cell viability at 100 uM after 72 hrs by sulforhodamine B assay. The following applies: U-251, 72 h, read-out: Activity. The experiment is classed as functional.
For experiment [3], the system named is U-251. Kind of experiment: Induction of apoptosis in human U251 cells assessed as early apoptotic level at 40 uM after 72 hrs by annexin V-FITC/propidium iodide double staining based flow cytometry (reference value: 1.77%). It counts as functional.
For experiment [4], the system named is U-251. Kind of experiment: Inhibition of cell proliferation of human U251 cells assessed as cell viability after 72 hrs by sulforhodamine B assay. It counts as functional, cell-based. The following applies: for IC50: U-251, 72 h. On the technique in general: Sulforhodamine B stains cellular protein and so reports cell mass.
The subject of experiment [5] is U-251. The experiment is described as follows: Induction of necrosis in human U251 cells at 15 uM after 72 hrs propidium iodide staining based fluorescence microscopy. It counts as functional, cell-based.
A short description of experiment [6]: (§1) Inhibition of cell proliferation of human U87MG cells assessed as cell viability after 72 hrs by sulforhodamine B assay. The experiment is classed as functional, cell-based, U-87MG ATCC. The following applies: U-87 MG.
In experiment [7] the test system is C6. The experiment is described as follows: Inhibition of cell proliferation of rat C6 cells assessed as cell viability after 72 hrs by sulforhodamine B assay. It counts as functional, cell-based. The following applies: for IC50: C6, 72 h.
Experiment [8] has as its system U-251. Kind of experiment: Induction of apoptosis in human U251 cells assessed as necrotic cell level at 40 uM after 72 hrs by annexin V-FITC/propidium iodide double staining based flow cytometry (reference value: 2.24%). The experiment is classed as functional. (Flow cytometry measures light scatter and fluorescence of single cells or particles in a stream.)
For experiment [9], the system named is U-251. Kind of experiment: Induction of apoptosis in human U251 cells assessed as late apoptotic level at 40 uM after 72 hrs by annexin V-FITC/propidium iodide double staining based flow cytometry (reference value: 4.95%). The experiment is classed as functional.
The subject of experiment [10] is C6. The experiment is described as follows: Induction of apoptosis in rat C6 cells assessed as nuclear pyknosis at 10 uM after 72 hrs by DAPI staining based fluorescence microscopy. It counts as functional, cell-based.
In experiment [11] the test system is U-251. The experiment is described as follows: Induction of apoptosis in human U251 cells assessed as nuclear pyknosis at 15 uM after 72 hrs by DAPI staining based fluorescence microscopy. The experiment is classed as functional, cell-based.
Experiment [12] has as its system U-251. Kind of experiment: Induction of apoptosis in human U251 cells assessed as viable cell level at 40 uM after 72 hrs by annexin V-FITC/propidium iodide double staining based flow cytometry (reference value: 91.04%). The experiment is classed as functional.
The subject of experiment [13] is U-251. The experiment is described as follows: Induction of apoptosis in human U251 cells assessed as early apoptotic level at 10 uM after 72 hrs by annexin V-FITC/propidium iodide double staining based flow cytometry (reference value: 0.56%). The experiment is classed as functional.
Experiment [14] relates to C6. The experiment is described as follows: Induction of apoptosis in rat C6 cells assessed as viable cell level at 6 uM after 72 hrs by annexin V-FITC/propidium iodide double staining based flow cytometry (reference value: 93.43). The experiment is classed as functional.
Experiment [15] has as its system C6. Kind of experiment: Induction of apoptosis in rat C6 cells assessed as late apoptotic level at 6 uM after 72 hrs by annexin V-FITC/propidium iodide double staining based flow cytometry (reference value: 3.68%). It counts as functional.
Experiment [16] has as its system U-251. The experiment is described as follows: Induction of apoptosis in human U251 cells assessed as nuclear pyknosis at 10 uM after 72 hrs by DAPI staining based fluorescence microscopy. It counts as functional, cell-based.
For experiment [17], the system named is C6. Kind of experiment: Induction of apoptosis in rat C6 cells assessed as nuclear pyknosis at 6 uM after 72 hrs by DAPI staining based fluorescence microscopy. The experiment is classed as functional, cell-based.
In experiment [18] the test system is C6. The experiment is described as follows: Induction of apoptosis in rat C6 cells assessed as necrotic cell level at 6 uM after 72 hrs by annexin V-FITC/propidium iodide double staining based flow cytometry (reference value: 1.22%). It counts as functional.
Experiment [19] relates to U-251. The experiment is described as follows: Induction of apoptosis in human U251 cells assessed as necrotic cell level at 10 uM after 72 hrs by annexin V-FITC/propidium iodide double staining based flow cytometry (reference value: 1.79%). It counts as functional.
The subject of experiment [20] is U-251. Kind of experiment: Induction of apoptosis in human U251 cells assessed as late apoptotic level at 10 uM after 72 hrs by annexin V-FITC/propidium iodide double staining based flow cytometry (reference value: 3.16%). It counts as functional.
The subject of experiment [21] is U-251. The experiment is described as follows: Induction of apoptosis in human U251 cells assessed as viable cell level at 10 uM after 72 hrs by annexin V-FITC/propidium iodide double staining based flow cytometry (reference value: 94.49%). It counts as functional.
Experiment [22] concerns C6. The experiment is described as follows: Induction of apoptosis in rat C6 cells assessed as early apoptotic level at 6 uM after 72 hrs by annexin V-FITC/propidium iodide double staining based flow cytometry (reference value: 1.67%). It counts as functional.
For experiment [23], the system named is C6. Kind of experiment: Induction of necrosis in rat C6 cells at 6 uM after 72 hrs by propidium iodide staining based fluorescence microscopy. The experiment is classed as functional, cell-based.
The subject of experiment [24] is U-251. Kind of experiment: Induction of necrosis in human U251 cells at 10 uM after 72 hrs propidium iodide staining based fluorescence microscopy. The experiment is classed as functional, cell-based.
Experiment [25] relates to C6. Kind of experiment: Induction of necrosis in rat C6 cells at 2.5 uM after 72 hrs by propidium iodide staining based fluorescence microscopy. It counts as functional, cell-based.
Experiment [26] has as its system U-251. Kind of experiment: Induction of necrosis in human U251 cells at 20 uM after 72 hrs propidium iodide staining based fluorescence microscopy. The experiment is classed as functional, cell-based.
Experiment [27] relates to U-251. The experiment is described as follows: Induction of apoptosis in human U251 cells assessed as nuclear pyknosis at 20 uM after 72 hrs by DAPI staining based fluorescence microscopy. The experiment is classed as functional, cell-based.
The test system of experiment [28] is C6. Kind of experiment: Induction of apoptosis in rat C6 cells assessed as nuclear pyknosis at 2.5 uM after 72 hrs by DAPI staining based fluorescence microscopy. It counts as functional, cell-based.
The subject of another experiment is U-87MG ATCC. The description is as §1. It counts as functional, cell-based.
The subject of experiment [29] is C6. The experiment is described as follows: Inhibition of cell proliferation of rat C6 cells assessed as cell viability at 100 uM after 72 hrs by sulforhodamine B assay. The experiment is classed as functional. The following applies: C6, 72 h, read-out: Activity.

On to `C/C=C(/C)C(=O)O[C@H]1[C@H](O)[C@]2(COC(C)=O)[C@H](O)C[C@]3(C)C(=CC[C@@H]4[C@@]5(C)CC[C@H](O[C@@H]6O[C@H](C(=O)OC)[C@@H](O[C@@H]7O[C@H](CO)[C@@H](O)[C@H](O)[C@H]7O)[C@H](O)[C@H]6O[C@@H]6O[C@H](CO)[C@@H](O)[C@H](O)[C@H]6O)[C@](C)(CO)[C@@H]5CC[C@]43C)[C@@H]2CC1(C)C`, for which the result with C6 [1], in the experiment on U-251 [5], with C6 [10] and in the experiment with U-251 [11] was Active. Further, in the experiment with U-251 [2], the viability at 100 µM was determined as 22.2%. Besides, the Activity worked out at 7.06% with U-251 [3], 4.3% with U-251 [8], 26.54% in the experiment with U-251 [9] and 62.1% with U-251 [12]. The figures for the IC50 (in the experiment on U-251 [4]; in [6]; with C6 [7]) were 15.6 µM, 8.32 µM and 11 µM, respectively.
For the compound `C=C[C@@](C)(O)CC/C=C(\C)C(=O)OC[C@H]1O[C@@H](OC(=O)[C@]23CCC(C)(C)C[C@H]2C2=CC[C@@H]4[C@@]5(C)CC[C@H](O[C@@H]6O[C@H](CO[C@@H]7OC[C@H](O)[C@H](O)[C@H]7O[C@@H]7OC[C@@H](O)[C@H](O)[C@H]7O)[C@@H](O)[C@H](O)[C@H]6O)C(C)(C)[C@@H]5CC[C@@]4(C)[C@]2(C)CC3)[C@H](O[C@@H]2O[C@@H](C)[C@H](O[C@@H]3OC[C@@H](O)[C@H](O[C@@H]4OC[C@@H](O)[C@H](O)[C@H]4O)[C@H]3O)[C@@H](O)[C@H]2O)[C@@H](O)[C@@H]1O`, the Activity in the experiment on U-251 [13] came to 4.12%; in the experiment with C6 [14], 40.15%; with C6 [15], 21.37%; in the experiment on C6 [18] it was 21.75%; in the experiment on U-251 [19], 13.62%; in the experiment on U-251 [20] it was 18.13%. The Activity is recorded as 64.13% in the experiment with U-251 [21] and 16.73% in the experiment on C6 [22]. Besides, the viability at 100 µM in the experiment on U-251 [2] stood at 14.2%. In addition, the IC50 is 16.9 µM in the experiment with U-251 [4], 14.7 µM in [6] and 7.3 µM in the experiment on C6 [7]. In addition, the result in the experiment with U-251 [16], with C6 [17], in the experiment on C6 [23] and in the experiment with U-251 [24] was Active.
For the compound `COc1cc(CCC(=O)OCCc2ccc(O)c(O)c2)ccc1O`, the result in the experiment on C6 [25], in the experiment with U-251 [26], with U-251 [27] and in the experiment on C6 [28] was Active. In addition, the viability at 100 µM in the experiment with U-251 [2] was found to be 48.4%. The half-maximal inhibitory concentration (IC50) was found to be 29.5 µM with U-251 [4] and 5.37 µM in the experiment with C6 [7].
Regarding `Cn1nnc2c(C(N)=O)ncn2c1=O` [TEMOZOLOMIDE], the IC50 in the experiment on U-251 [4] was above 200 µM; in [6] it was above 200 µM; with C6 [7], 60.5 µM.
`C[C@@H]1O[C@@H](O[C@H]2[C@H](OC(=O)[C@]34CCC(C)(C)C[C@H]3C3=CC[C@@H]5[C@@]6(C)CC[C@H](O[C@@H]7O[C@H](CO[C@@H]8OC[C@H](O)[C@H](O)[C@H]8O[C@@H]8OC[C@@H](O)[C@H](O)[C@H]8O)[C@@H](O)[C@H](O)[C@H]7O)C(C)(C)[C@@H]6CC[C@@]5(C)[C@]3(C)CC4)O[C@H](CO)[C@@H](O)[C@@H]2O)[C@H](O)[C@H](O)[C@H]1O[C@@H]1OC[C@@H](O)[C@H](O[C@@H]2OC[C@@H](O)[C@H](O)[C@H]2O)[C@H]1O`: the viability at 100 µM with U-251 [2] worked out at 91.8%; with C6 [29], 62.7%. For the same compound, the inhibition result in the experiment with U-251 [4], with U-87MG ATCC and in the experiment on C6 [7] was “inactive” each time.
